Patent US20110177105A1, “Novel Selective Inhibitors of Ubiquitin Specific Protease 7, the Pharmaceutical Compositions Thereof and Their Therapeutic Applications” (priority 2010, published 2011)

Target: T1, USP8 (Homo sapiens, UniProt P40818)
T1 construct: His tag (pFastBac-HT vector); made in house; host or cells: Sf9 or High Five insect cells, baculovirus
T1 sequence (P40818 1-1118): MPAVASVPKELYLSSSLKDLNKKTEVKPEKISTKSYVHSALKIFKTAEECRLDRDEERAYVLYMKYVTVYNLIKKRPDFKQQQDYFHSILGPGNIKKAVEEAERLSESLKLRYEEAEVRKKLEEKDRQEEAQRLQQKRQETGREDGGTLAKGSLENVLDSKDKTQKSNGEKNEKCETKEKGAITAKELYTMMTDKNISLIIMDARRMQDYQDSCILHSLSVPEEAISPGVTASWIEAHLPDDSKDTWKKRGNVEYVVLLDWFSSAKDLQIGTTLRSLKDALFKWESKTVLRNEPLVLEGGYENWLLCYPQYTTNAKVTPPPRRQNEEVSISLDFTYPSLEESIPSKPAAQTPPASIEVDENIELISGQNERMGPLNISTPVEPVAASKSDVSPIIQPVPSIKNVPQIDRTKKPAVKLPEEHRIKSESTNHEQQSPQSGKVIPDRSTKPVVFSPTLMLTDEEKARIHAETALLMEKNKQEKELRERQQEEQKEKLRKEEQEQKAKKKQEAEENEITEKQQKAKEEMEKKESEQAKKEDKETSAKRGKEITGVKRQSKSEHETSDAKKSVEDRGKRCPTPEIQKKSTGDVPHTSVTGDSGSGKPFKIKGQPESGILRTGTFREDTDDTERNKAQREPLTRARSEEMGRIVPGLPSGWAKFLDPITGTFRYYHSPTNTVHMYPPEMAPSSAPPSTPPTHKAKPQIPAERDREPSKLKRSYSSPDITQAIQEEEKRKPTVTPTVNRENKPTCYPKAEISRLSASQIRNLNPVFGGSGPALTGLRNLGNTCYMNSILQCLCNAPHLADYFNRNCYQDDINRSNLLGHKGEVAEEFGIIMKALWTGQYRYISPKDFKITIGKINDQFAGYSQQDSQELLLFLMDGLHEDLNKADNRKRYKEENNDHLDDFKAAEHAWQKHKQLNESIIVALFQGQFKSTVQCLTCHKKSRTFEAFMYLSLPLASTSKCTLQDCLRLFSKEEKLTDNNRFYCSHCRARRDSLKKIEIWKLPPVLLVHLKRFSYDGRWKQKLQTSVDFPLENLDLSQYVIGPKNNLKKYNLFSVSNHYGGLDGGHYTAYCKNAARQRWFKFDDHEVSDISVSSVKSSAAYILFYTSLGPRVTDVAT
Test: USP8 activity assay (Ub-AMC)
Assay type: biochemical
Details: 300 nM Ub-AMC, 1.36 nM enzyme
From the text: The cDNA encoding USP8 was obtained by PCR amplification from placenta mRNA. USP8 cDNA was subcloned by PCR into a baculovirus expression vector (pFastBac-HT; Invitrogen). A cDNA encoding a mutated USP8 was generated by mutagenic PCR. The corresponding protein encodes a cysteine to alanine substitution at residue 786. The sequences were ascertained by sequencing of the entire open reading frame. Bacmids encoding USP8 were generated following DH10bac transposition. The corresponding bacmids were transfected into insect cells (Sf9). Viruses were recovered from culture supernatant and amplified twice. Insect cells (Sf9 or High Five; Invitrogen) were infected for 72 hours. Total cell lysates were harvested and lyzed in lysis buffer (Tris HCl 50 mM pH 7.6; 0.75% NP40; 500 mM NaCl; 10% glycerol; 1 mM DTT; 10 mM imidazole; Protease Inhibitor Cocktail; AEBSF 20 μg·ml^−1; Aprotinin 10 μg·ml^−1). Proteins were affinity purified on metal affinity resins (Talon Metal affinity resin; BD Biosciences). Bound materials were extensively washed in wash buffer (50 mM Sodium Phosphate pH 7.0; 300 mM NaCl; 10 mM imidazole; 0.5% Triton X-100; 10% glycerol) and eluted from the resin in 250 mM imidazole-containing wash buffer. Proteins were dialyzed in dialysis buffer (Tris HCl pH 7.6 20 mM; NaCl 200 mM; DTT 1 mM; EDTA 1 mM; 10% Glycerol). Proteins purifications were analyzed on 4-12% NuPAGE (Invitrogen).
USP8 was diluted in USP buffer (50 mM Tris HCl; 0.5 mM EDTA; 5 mM DTT; 0.01% Triton X-100; Bovine Serum Albumin 0.05 mg·ml^−1 pH 8.8). Compounds stocks (100 mM) were stored at −20° C. in DMSO. Compounds were tested at different concentrations: from […] to 91 nM.
Reactions were performed as duplicates in Black 384 well plates (small volume microplates; Greiner; 10 μl final reaction volume). The substrate concentration for USP8 was 300 nM Ub-AMC (Boston Biochem). The concentration of the enzyme (USP8) in specificity assays was 1.36 nM. The concentrations were determined in order to perform specificity assays under initial velocities at fixed substrate concentration. Compounds were pre-incubated with enzymes for 30 minutes at 25° C. Reactions were initiated by addition of substrate to the plates containing the enzymes (+/−compounds) diluted in assay buffer. Reactions were incubated for 60 minutes at 37° C. Reactions were stopped by adding acetic acid (100 mM final). Readings were performed on a Pherastar Fluorescent Reader (BMG). λ Emission 380 nm: λ Excitation=460 nm. Data (mean values+/−standard deviation) were analyzed as % of control (no compound) and plotted as percentage versus the Log of the compound concentration using GraphPad (Prism). Data were fitted to a sigmoidal model (variable slope).

SMILES | IC50
O=C(c1ccc2c(Cl)c3c(nc2c1)CCCC3)N1CCCCCC1 [Example 12, Azepan-1-yl-(9-chloro-5,6,7,8-tetrahydro-acridin-3-yl)-methanone] | > 200 µM
CCCN(CCC)CCCNC(=O)c1ccc2c(Cl)c3c(nc2c1)CCCC3 [Example 6, 9-Chloro-5,6,7,8-tetrahydro-acridine-3-carboxylic acid (3-dipropylamino-propyl)-amide] | > 200 µM
Cc1cccc(CN2CCC(CNC(=O)c3ccc4c(Cl)c5c(nc4c3)CCCC5)CC2)c1 [Example 1, 9-Chloro-5,6,7,8-tetrahydro-acridine-3-carboxylic acid [1-(3-methyl-benzyl)-piperidin-4-ylmethyl]-amide] | > 200 µM
CCN(CC)CCNC(=O)c1ccc2c(Cl)c3c(nc2c1)CCCC3 [Example 7, 9-Chloro-5,6,7,8-tetrahydro-acridine-3-carboxylic acid (2-diethylamino-ethyl)-amide] | > 200 µM
CC1CCCC(C)N1CCCNC(=O)c1ccc2c(Cl)c3c(nc2c1)CCCC3 (stereo not drawn) [Example 9, 9-Chloro-5,6,7,8-tetrahydro-acridine-3-carboxylic acid [3-(2,6-dimethyl-piperidin-1-yl)-propyl]-amide] | > 200 µM
CN(CCCNC(=O)c1ccc2c(Cl)c3c(nc2c1)CCCC3)Cc1ccccc1 [Example 14, 9-Chloro-5,6,7,8-tetrahydro-acridine-3-carboxylic acid [3-(benzyl-methyl-amino)-propyl]-amide] | > 200 µM
O=C(NCCCN1CCCC1)c1ccc2c(Cl)c3c(nc2c1)CCCC3 [Example 8, 9-Chloro-5,6,7,8-tetrahydro-acridine-3-carboxylic acid (3-pyrrolidin-1-yl-propyl)-amide] | > 200 µM
O=C(c1ccc2c(Cl)c3c(nc2c1)CCCC3)N1CCC(N2CCCCC2)CC1 [Example 16, [1,4′]Bipiperidinyl-1′-yl-(9-chloro-5,6,7,8-tetrahydro-acridin-3-yl)-methanone] | > 200 µM
CCCCN(CC)CCNC(=O)c1ccc2c(Cl)c3c(nc2c1)CCCC3 [Example 4, 9-Chloro-5,6,7,8-tetrahydro-acridine-3-carboxylic acid [2-(butyl-ethyl-amino)-ethyl]-amide] | > 200 µM
CN1CCN(CCCNC(=O)c2ccc3c(Cl)c4c(nc3c2)CCCC4)CC1 [Example 15, 9-Chloro-5,6,7,8-tetrahydro-acridine-3-carboxylic acid [3-(4-methyl-piperazin-1-yl)-propyl]-amide] | > 200 µM
CCCN(CCC)CCNC(=O)c1ccc2c(Cl)c3c(nc2c1)CCCC3 [Example 3, 9-Chloro-5,6,7,8-tetrahydro-acridine-3-carboxylic acid (2-dipropylamino-ethyl)-amide] | > 200 µM
CCCN1CCN(CCCNC(=O)c2ccc3c(Cl)c4c(nc3c2)CCCC4)CC1 [Example 13, 9-Chloro-5,6,7,8-tetrahydro-acridine-3-carboxylic acid [3-(4-propyl-piperazin-1-yl)-propyl]-amide] | > 200 µM
CCN(CCCNC(=O)c1ccc2c(Cl)c3c(nc2c1)CCCC3)Cc1ccccc1 [Example 5, 9-Chloro-5,6,7,8-tetrahydro-acridine-3-carboxylic acid [3-(benzyl-ethyl-amino)-propyl]-amide] | > 200 µM
CCN(CC)CCCNC(=O)c1ccc2c(Cl)c3c(nc2c1)CCCC3 [Example 10, 9-Chloro-5,6,7,8-tetrahydro-acridine-3-carboxylic acid (3-diethylamino-propyl)-amide] | > 200 µM
CN(C)CCNC(=O)c1ccc2c(Cl)c3c(nc2c1)CCCC3 [Example 11, 9-Chloro-5,6,7,8-tetrahydro-acridine-3-carboxylic acid (2-dimethylamino-ethyl)-amide] | > 200 µM
